{
  "source": "patent US12280037B2",
  "about": "“Method and pharmaceutical composition for treating or preventing trichomoniasis and uses thereof” (EVOFEM BIOSCIENCES, INC., priority 2020, dated 2025)",
  "key": {"[1]": {"assay": "Thorough QT (TQT) study: QTc, cardiac conduction and adverse events", "conditions": "Moxifloxacin 400 mg oral (control)", "method": "A TQT study was also conducted. The TQT study was a double-blind, randomized, placebo-controlled, 4-period, single-dose, crossover design in 52 healthy male and female subjects."}, "[2]": {"assay": "Thorough QT (TQT) study: secnidazole pharmacokinetics by gender", "assay_type": "in vivo, human", "protocol": "A TQT study was also conducted. […] A total of 50 subjects (29 males and 21 females) were included in the PK population. Noncompartmental PK parameters for these subjects are summarized by gender in Table 15 below."}, "[3]": {"assay": "Phase 3 study: treatment-emergent adverse events (safety population)", "assay_type": "in vivo, human", "conditions": "2 grams, safety population (N = 74), TEAEs in primary phase", "protocol": "Safety analyses, including the evaluation of adverse events, physical examinations, pelvic examinations, collection of vital signs (blood pressure, temperature, and pulse), and clinical laboratory assessments (serum chemistry, hematology, and urinalysis) was conducted at all study visits. Adverse event information was also collected on the phone call between study V2 and V3."}, "[4]": {"test_system": "clinical isolates of T. vaginalis", "assay": "Susceptibility testing, minimal lethal concentration (MLC), aerobic", "assay_type": "cell-based, Trichomonas vaginalis", "conditions": "for MLC, mean (±SD) among all isolates / MLC, median: aerobic, 46-50 h", "protocol": "Susceptibility testing was conducted with one hundred (100) clinical isolates of T. vaginalis.\nArchived, de-identified, clinical isolates of T. vaginalis that were banked in liquid nitrogen were used for this study. The samples had been collected between July 2015 and June 2017, in accordance with institutional review board guidelines, and all patients had consented to the storage and use of their samples for subsequent testing. […] In brief, trichomonads were grown in Diamond's medium 1025 (containing trypticase soy broth, yeast extract, maltose, and calf serum) adjusted to pH 5.9 and supplemented with streptomycin at 1 g/liter and penicillin G at 100 U/ml. A hemocytometer was used to count the trichomonad population and to adjust it to a concentration of 66,666 cells/ml. Isolates were tested in microtiter plates under aerobic conditions. […] Plates were then incubated at 37° C. for 46 hours to 50 hours and read with a Zeiss Axiovert inverted microscope. The concentration of drug in the microplate wells in which no motile trichomonads were observed was reported as the MLC. […] Low-level resistance was defined as an aerobic MLC of 50 μg/ml to 100 μg/ml, moderate-level resistance as an aerobic MLC of 200 μg/ml, and high-level resistance as an aerobic MLC of >400 μg/ml. The MLCs for metronidazole and secnidazole were analyzed using the Wilcoxon signed-rank test to evaluate the differences between treatments.\nEach well of a 96-well plate was filled with 150 μL of T. vaginalis suspension in Diamond's growth media (10^4 trichomonads). […] Cultures were visually assessed for survival, defined by observation of motility, through a 100× inverted microscope."}, "[5]": {"conditions": "men, published studies; cited from earlier work"}, "[6]": {"assay": "Phase I study of SYM-1219 4 grams or 6 grams: secnidazole plasma concentrations", "assay_type": "in vivo, human", "protocol": "Additionally, a Phase I, randomized, placebo-controlled, single-blind, two-group study, which assessed the safety, tolerability, and PK of single oral doses of SYM-1219 granules containing either 4 grams or 6 grams of secnidazole administered in approximately 8 ounces of applesauce to 16 healthy male and female subjects, was conducted to determine the supratherapeutic dose for a potential Thorough QT (“TQT”) study. Subjects were randomized 3:1, such that a total of 12 subjects received secnidazole and 4 subjects received placebo. 3 male and 3 female subjects were treated at each secnidazole dose level (i.e., 4 grams or 6 grams). Blood samples for PK assessments were collected at the following timepoints: 30 minutes prior to dosing and 3 hours, 6 hours, 8 hours and 24 hours post dose. Plasma concentrations were summarized by timepoint using descriptive statistics; noncompartmental PK parameters were not calculated.\nEligible subject were admitted to the clinical site on Day −1 and were discharged following a safety evaluation on Day 2; the in-house period was approximately 2 days. Randomization occurred after the assessments of Day −1 determined that subjects remained eligible for the study. All subject were asked to return on Day 7+/2 days for a final study visit. The maximum study duration was approximately 4 weeks to 5 weeks (including the study screening period).\nGroup A received a single oral dose of SYM-1219 microgranules, containing 4 grams of secnidazole (N=6) (2 packets of SYM-1219 microgranules, 2 grams of secnidazole/packet), or a placebo (N=2) (2 packets of placebo) in approximately 8 oz. of applesauce. […]\nBlood samples for PK analysis were collected: 30 minutes prior to dosing and 3 hours, 6 hours, 8 hours and 24 hours postdose. […] Plasma secnidazole concentrations were determined by Celerion, Inc., using validated analytical procedures. […]"}, "[7]": {"conditions": "100 clinical T. vaginalis isolates"}, "[8]": {"conditions": "100 clinical T. vaginalis isolates, listed as secnidazole"}},
  "note": "“And” between values parts separate entries of the source, which are not always exact repeats. Equal entries are not always repeated.",
  "data": [
    {"compound": "COc1c(N2C[C@@H]3CCCN[C@@H]3C2)c(F)cc2c(=O)c(C(=O)O)cn(C3CC3)c12", "note": "[Moxifloxacin]", "values": [
      {"measurement": "Overall incidence rate of TEAEs", "setting": "[1]", "value": 4.3, "unit": "%"}
    ]},
    {"compound": "Cc1ncc([N+](=O)[O-])n1CC(C)O", "note": "(stereo not drawn) [Secnidazole, 1-(2-hydroxypropyl)-2-methyl-5-nitromidazole]", "values": [
      {"measurement": "Plasma concentrations and exposures in males versus females", "setting": "[2]; 2 and 6 grams", "value": "slightly lower"},
      {"measurement": "Secnidazole exposure over the 24-hour sampling period, fold lower in male vs female subjects", "setting": "[2]; Phase I study concentration-by-time data or TQT study mean PK parameters", "value": "approximately 1.5 fold"},
      {"measurement": "Variability in plasma concentrations", "setting": "[2]; across the sampling times, 2 and 6 grams", "value": "21% to 57%"},
      {"measurement": "Dose proportionality of plasma concentrations", "setting": "[2]; from 2 grams to 6 grams of secnidazole", "value": "essentially dose-proportional"},
      {"measurement": "Time postdose up to which concentrations greater than the median MLC are maintained", "setting": "[2]; men", "value": "at least 96 hours"},
      {"measurement": "Abdominal pain: Events n", "setting": "[3]", "value": 1},
      {"measurement": "Abdominal pain: Patients n (%)", "setting": "[3]", "value": "1 (1.4%)"},
      {"measurement": "Any Adverse Event, Overall: Events n", "setting": "[3]", "value": 13},
      {"measurement": "Any Adverse Event, Overall: Patients n (%)", "setting": "[3]", "value": "11 (14.9%)"},
      {"measurement": "Back pain: Events n", "setting": "[3]", "value": 0},
      {"measurement": "Back pain: Patients n (%)", "setting": "[3]", "value": 0, "unit": "%"},
      {"measurement": "Diarrhea: Events n", "setting": "[3]", "value": 1},
      {"measurement": "Diarrhea: Patients n (%)", "setting": "[3]", "value": "1 (1.4%)"},
      {"measurement": "Dysmenorrhoea: Events n", "setting": "[3]", "value": 0},
      {"measurement": "Dysmenorrhoea: Patients n (%)", "setting": "[3]", "value": 0, "unit": "%"},
      {"measurement": "Gastrointestinal disorders, Overall: Events n", "setting": "[3]", "value": 5},
      {"measurement": "Gastrointestinal disorders, Overall: Patients n (%)", "setting": "[3]", "value": "4 (5.4%)"},
      {"measurement": "General disorders and administration site conditions, Overall: Events n", "setting": "[3]", "value": 0},
      {"measurement": "General disorders and administration site conditions, Overall: Patients n (%)", "setting": "[3]", "value": 0, "unit": "%"},
      {"measurement": "Headache: Events n", "setting": "[3]", "value": 1},
      {"measurement": "Headache: Patients n (%)", "setting": "[3]", "value": "1 (1.4%)"},
      {"measurement": "Infections and infestations, Overall: Events n", "setting": "[3]", "value": 3},
      {"measurement": "Infections and infestations, Overall: Patients n (%)", "setting": "[3]", "value": "3 (4.1%)"},
      {"measurement": "Menstruation irregular: Events n", "setting": "[3]", "value": 0},
      {"measurement": "Menstruation irregular: Patients n (%)", "setting": "[3]", "value": 0, "unit": "%"},
      {"measurement": "Musculoskeletal and connective tissue disorders, Overall: Events n", "setting": "[3]", "value": 1},
      {"measurement": "Musculoskeletal and connective tissue disorders, Overall: Patients n (%)", "setting": "[3]", "value": "1 (1.4%)"},
      {"measurement": "Myalgia: Events n", "setting": "[3]", "value": 1},
      {"measurement": "Myalgia: Patients n (%)", "setting": "[3]", "value": "1 (1.4%)"},
      {"measurement": "Nausea: Events n", "setting": "[3]", "value": 2},
      {"measurement": "Nausea: Patients n (%)", "setting": "[3]", "value": "2 (2.7%)"},
      {"measurement": "Nervous system disorders, Overall: Events n", "setting": "[3]", "value": 1},
      {"measurement": "Nervous system disorders, Overall: Patients n (%)", "setting": "[3]", "value": "1 (1.4%)"},
      {"measurement": "Productive cough: Events n", "setting": "[3]", "value": 1},
      {"measurement": "Productive cough: Patients n (%)", "setting": "[3]", "value": "1 (1.4%)"},
      {"measurement": "Pruritus: Events n", "setting": "[3]", "value": 0},
      {"measurement": "Pruritus: Patients n (%)", "setting": "[3]", "value": 0, "unit": "%"},
      {"measurement": "Reproductive system and breast disorders, Overall: Events n", "setting": "[3]", "value": 1},
      {"measurement": "Reproductive system and breast disorders, Overall: Patients n (%)", "setting": "[3]", "value": "1 (1.4%)"},
      {"measurement": "Respiratory, thoracic and mediastinal disorders, Overall: Events n", "setting": "[3]", "value": 2},
      {"measurement": "Respiratory, thoracic and mediastinal disorders, Overall: Patients n (%)", "setting": "[3]", "value": "2 (2.7%)"},
      {"measurement": "Skin and subcutaneous tissue disorders, Overall: Events n", "setting": "[3]", "value": 0},
      {"measurement": "Skin and subcutaneous tissue disorders, Overall: Patients n (%)", "setting": "[3]", "value": 0, "unit": "%"},
      {"measurement": "Thirst: Events n", "setting": "[3]", "value": 0},
      {"measurement": "Thirst: Patients n (%)", "setting": "[3]", "value": 0, "unit": "%"},
      {"measurement": "Trichomoniasis (adverse event): Events n", "setting": "[3]", "value": 0},
      {"measurement": "Trichomoniasis (adverse event): Patients n (%)", "setting": "[3]", "value": 0, "unit": "%"},
      {"measurement": "Upper-airway cough syndrome: Events n", "setting": "[3]", "value": 1},
      {"measurement": "Upper-airway cough syndrome: Patients n (%)", "setting": "[3]", "value": "1 (1.4%)"},
      {"measurement": "Vomiting: Events n", "setting": "[3]", "value": 1},
      {"measurement": "Vomiting: Patients n (%)", "setting": "[3]", "value": "1 (1.4%)"},
      {"measurement": "Vulvovaginal candidiasis: Events n", "setting": "[3]", "value": 2},
      {"measurement": "Vulvovaginal candidiasis: Patients n (%)", "setting": "[3]", "value": "2 (2.7%)"},
      {"measurement": "Vulvovaginal mycotic infection: Events n", "setting": "[3]", "value": 1},
      {"measurement": "Vulvovaginal mycotic infection: Patients n (%)", "setting": "[3]", "value": "1 (1.4%)"},
      {"measurement": "Vulvovaginal pruritus: Events n", "setting": "[3]", "value": 1},
      {"measurement": "Vulvovaginal pruritus: Patients n (%)", "setting": "[3]", "value": "1 (1.4%)"},
      {"measurement": "In vitro efficacy in comparison with metronidazole", "setting": "[4]; [7]", "value": "superior efficacy in vitro"},
      {"measurement": "Isolates demonstrating moderate- or high-level resistance", "setting": "[4]; [7]", "value": "none of the isolates"},
      {"measurement": "Isolates with a lower MLC for secnidazole than for metronidazole", "setting": "[4]; [7]", "value": 96, "unit": "%"},
      {"measurement": "Prevalence of low-level resistance (aerobic MLC 50 μg/ml to 100 μg/ml)", "setting": "[4]; [7]", "value": "Four"},
      {"measurement": "MLC, mean (±SD) among all isolates", "setting": "[4]; [7]", "value": "Mean: 5.9 μg/mL"},
      {"measurement": "MLC, median", "setting": "[4]; [7]", "value": "Median: 1.6 μg/mL"},
      {"measurement": "MLC, mean (±SD) among all isolates", "setting": "[4]; [8]", "value": "5.9 ± 13.2 µg/mL and 5.9 µg/mL"},
      {"measurement": "MLC, median", "setting": "[4]; [8]", "value": 1.6, "unit": "µg/mL"},
      {"measurement": "Response of control isolates with established high-level resistance to metronidazole", "setting": "[4]; control isolates", "value": "responded to significantly lower levels of secnidazole"},
      {"measurement": "MLC in the one isolate with a higher MLC for secnidazole than for metronidazole", "setting": "[4]; single clinical isolate", "value": 3.1, "unit": "µg/mL"},
      {"measurement": "Mean dose-normalized (to 2 grams) concentrations at 96 hours", "setting": "[5]", "value": "approximately 2 μg/mL"},
      {"measurement": "Plasma concentrations and exposures in males versus females", "setting": "[6]; 4 and 6 grams", "value": "slightly lower"},
      {"measurement": "Variability in plasma concentrations", "setting": "[6]; across the limited sampling times, 4 and 6 grams", "value": "4% to 29%"},
      {"measurement": "Dose proportionality of plasma concentrations", "setting": "[6]; from 4 grams to 6 grams of secnidazole", "value": "essentially dose-proportional"}
    ]}
  ]
}
